For 5 compounds, mutagenic call results are on record in PubChem BioAssay AID1259407 (Chemical Carcinogenesis Research Information System (CCRIS), 2018).

The source made the active and inactive calls. How the calls were made is not given here.

The subject of this data set is CCRIS mutagenicity, Ames/micronucleus/aberration tests. The experiment in a line: CCRIS mutagenicity studies.

Turning to `CC(C)=CC1C(C(=O)OCc2coc(Cc3ccccc3)c2)C1(C)C` (stereo unspecified), the mutagenic call was “inactive; negative” (Test System: AMES SALMONELLA TYPHIMURIUM, Strain/Indicator: TA97, Metabolic Activation: NONE, Method: STANDARD PLATE); “inactive; negative” (Test System: AMES SALMONELLA TYPHIMURIUM, Strain/Indicator: TA97, Metabolic Activation: RAT, LIVER, S-9, PHENOBARBITONE, Method: STANDARD PLATE); “active; positive” (Test System: AMES SALMONELLA TYPHIMURIUM, Strain/Indicator: TA98); “inactive; negative” (Test System: AMES SALMONELLA TYPHIMURIUM, Strain/Indicator: TA98, Metabolic Activation: NONE); “inactive; negative” (Test System: AMES SALMONELLA TYPHIMURIUM, Strain/Indicator: TA98, Metabolic Activation: NONE, Method: STANDARD PLATE); “inactive; negative” (Test System: AMES SALMONELLA TYPHIMURIUM, Strain/Indicator: TA98, Metabolic Activation: RAT, LIVER, S-9, AROCLOR 1254, Method: STANDARD PLATE). In addition, the mutagenic call was “inactive; negative” (Test System: AMES SALMONELLA TYPHIMURIUM, Strain/Indicator: TA98, Metabolic Activation: RAT, LIVER, S-9, PHENOBARBITONE, Method: STANDARD PLATE); “active; positive” (Test System: AMES SALMONELLA TYPHIMURIUM, Strain/Indicator: TA100); “inactive; negative” (Test System: AMES SALMONELLA TYPHIMURIUM, Strain/Indicator: TA100, Metabolic Activation: NONE); “inactive; negative” (Test System: AMES SALMONELLA TYPHIMURIUM, Strain/Indicator: TA100, Metabolic Activation: NONE, Method: STANDARD PLATE); “inactive; negative” (Test System: AMES SALMONELLA TYPHIMURIUM, Strain/Indicator: TA100, Metabolic Activation: RAT, LIVER, S-9, AROCLOR 1254, Method: STANDARD PLATE); “inactive; negative” (Test System: AMES SALMONELLA TYPHIMURIUM, Strain/Indicator: TA100, Metabolic Activation: RAT, LIVER, S-9, PHENOBARBITONE, Method: STANDARD PLATE). Further, the mutagenic call reads like this: (Test System: AMES SALMONELLA TYPHIMURIUM, Strain/Indicator: TA104, Metabolic Activation: NONE, Method: STANDARD PLATE) “inactive; negative”; (Test System: AMES SALMONELLA TYPHIMURIUM, Strain/Indicator: TA104, Metabolic Activation: RAT, LIVER, S-9, PHENOBARBITONE, Method: STANDARD PLATE) “inactive; negative”; (Test System: AMES SALMONELLA TYPHIMURIUM, Strain/Indicator: TA1535, Metabolic Activation: NONE, Method: STANDARD PLATE) “inactive; negative”; (Test System: AMES SALMONELLA TYPHIMURIUM, Strain/Indicator: TA1535, Metabolic Activation: RAT, LIVER, S-9, AROCLOR 1254, Method: STANDARD PLATE) “inactive; negative”; (Test System: AMES SALMONELLA TYPHIMURIUM, Strain/Indicator: TA1537, Metabolic Activation: NONE, Method: STANDARD PLATE) “inactive; negative”; (Test System: AMES SALMONELLA TYPHIMURIUM, Strain/Indicator: TA1537, Metabolic Activation: RAT, LIVER, S-9, AROCLOR 1254, Method: STANDARD PLATE) “inactive; negative”. The mutagenic call runs as follows: (Test System: CHINESE HAMSTER V-79, Strain/Indicator: V-79/6-THIOGUANINE, Metabolic Activation: NONE, Method: STANDARD PLATE) “inactive; negative”; (Test System: CHINESE HAMSTER V-79, Strain/Indicator: V-79/6-THIOGUANINE, Metabolic Activation: RAT HEPATOCYTES, Method: STANDARD PLATE) “inactive; negative”; (Test System: CHINESE HAMSTER V-79, Strain/Indicator: V-79/OUABAIN, Metabolic Activation: NONE, Method: STANDARD PLATE) “inactive; negative”; (Test System: CHINESE HAMSTER V-79, Strain/Indicator: V-79/OUABAIN, Metabolic Activation: RAT HEPATOCYTES, Method: STANDARD PLATE) “inactive; negative”; (Test System: E. COLI, Strain/Indicator: WP2, Metabolic Activation: NONE, Method: STANDARD PLATE) “inactive; negative”; (Test System: E. COLI, Strain/Indicator: WP2, Metabolic Activation: RAT, LIVER, S-9, AROCLOR 1254, Method: STANDARD PLATE) “inactive; negative”.
For `C=C[Si](OCC)(OCC)OCC`, the mutagenic call was “inactive; negative” (Test System: AMES SALMONELLA TYPHIMURIUM, Strain/Indicator: TA98, Metabolic Activation: HAMSTER, LIVER, S-9, AROCLOR 1254 (10%), Method: PREINCUBATION); “inactive; negative” (Test System: AMES SALMONELLA TYPHIMURIUM, Strain/Indicator: TA98, Metabolic Activation: NONE, Method: PREINCUBATION); “inactive; negative” (Test System: AMES SALMONELLA TYPHIMURIUM, Strain/Indicator: TA98, Metabolic Activation: RAT, LIVER, S-9, AROCLOR 1254 (10%), Method: PREINCUBATION); “inactive; negative” (Test System: AMES SALMONELLA TYPHIMURIUM, Strain/Indicator: TA100, Metabolic Activation: HAMSTER, LIVER, S-9, AROCLOR 1254 (10%), Method: PREINCUBATION); “inactive; negative” (Test System: AMES SALMONELLA TYPHIMURIUM, Strain/Indicator: TA100, Metabolic Activation: NONE, Method: PREINCUBATION); “inactive; negative” (Test System: AMES SALMONELLA TYPHIMURIUM, Strain/Indicator: TA100, Metabolic Activation: RAT, LIVER, S-9, AROCLOR 1254 (10%), Method: PREINCUBATION). Besides, the mutagenic call is, setting by setting: (Test System: AMES SALMONELLA TYPHIMURIUM, Strain/Indicator: TA1535, Metabolic Activation: HAMSTER, LIVER, S-9, AROCLOR 1254 (10%), Method: PREINCUBATION) “inactive; negative”; (Test System: AMES SALMONELLA TYPHIMURIUM, Strain/Indicator: TA1535, Metabolic Activation: NONE, Method: PREINCUBATION) “inactive; negative”; (Test System: AMES SALMONELLA TYPHIMURIUM, Strain/Indicator: TA1535, Metabolic Activation: RAT, LIVER, S-9, AROCLOR 1254 (10%), Method: PREINCUBATION) “inactive; negative”; (Test System: AMES SALMONELLA TYPHIMURIUM, Strain/Indicator: TA1537, Metabolic Activation: HAMSTER, LIVER, S-9, AROCLOR 1254 (10%), Method: PREINCUBATION) “inactive; negative”; (Test System: AMES SALMONELLA TYPHIMURIUM, Strain/Indicator: TA1537, Metabolic Activation: NONE, Method: PREINCUBATION) “inactive; negative”; (Test System: AMES SALMONELLA TYPHIMURIUM, Strain/Indicator: TA1537, Metabolic Activation: RAT, LIVER, S-9, AROCLOR 1254 (10%), Method: PREINCUBATION) “inactive; negative”. In addition, the mutagenic call is, setting by setting: (Test System: AMES SALMONELLA TYPHIMURIUM, Strain/Indicator: TA1538, Metabolic Activation: HAMSTER, LIVER, S-9, AROCLOR 1254 (10%), Method: PREINCUBATION) “inactive; negative”; (Test System: AMES SALMONELLA TYPHIMURIUM, Strain/Indicator: TA1538, Metabolic Activation: NONE, Method: PREINCUBATION) “inactive; negative”; (Test System: AMES SALMONELLA TYPHIMURIUM, Strain/Indicator: TA1538, Metabolic Activation: RAT, LIVER, S-9, AROCLOR 1254 (10%), Method: PREINCUBATION) “inactive; negative”; (Test System: Mouse lymphoma, Strain/Indicator: L5178Y (tk+/tk-), Metabolic Activation: None, Method: Suspension/plate) “inactive; negative”; (Test System: Mouse lymphoma, Strain/Indicator: L5178Y (tk+/tk-), Metabolic Activation: Rat, Liver, S-9, Aroclor 1254, Method: Suspension/plate) “inactive; negative”.
On to `Cc1cccc2c1cc1c3c(cccc32)-c2ccccc2-1`, for which, for the setting “Test System: AMES SALMONELLA TYPHIMURIUM, Strain/Indicator: TA100, Metabolic Activation: RAT, LIVER, S-9, AROCLOR 1254”, the mutagenic call is “active; positive”.
With `O=C/C=C/C=C/C(=O)O`, under “Test System: CHINESE HAMSTER V-79, Strain/Indicator: V-79 (HGPRT)/8-AZAGUANINE, Metabolic Activation: NONE”, the mutagenic call was “active; positive”.
`Cc1cc2c(nc1N)[nH]c1ccccc12`: the mutagenic call by setting is: (Test System: AMES SALMONELLA TYPHIMURIUM, Strain/Indicator: TA98, Metabolic Activation: RAT, LIVER, S-9, AROCLOR 1254, Method: PREINCUBATION) “active; positive”; (Test System: AMES SALMONELLA TYPHIMURIUM, Strain/Indicator: TA100, Metabolic Activation: RAT, LIVER, S-9, AROCLOR 1254, Method: PREINCUBATION) “active; positive”; (Test System: AMES SALMONELLA TYPHIMURIUM, Strain/Indicator: YG1019, Metabolic Activation: RAT LIVER S-9, AROCLOR, Method: PREINCUBATION) “active; positive”.
